Biological target: T1, STING (Homo sapiens, UniProt Q86WV6, G230A/H232R/R293Q/R71H)
T1 construct: host or cells: THP1-Dual KO-IFNAR2 cells
Assay: STING reporter assay (luciferase) in THP1-Dual KO-IFNAR2 cells stimulated with 2′3′cGAMP
Type: cell-based
Conditions: 2′3′cGAMP 15 μM final, 24 h, luciferase reporter activity, read-out: Pharmaron, THP1_IFNAR2 STING 24 h Luci Normalized: GeoMean EC50
Method in brief: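 THP1-Dual KO-IFNAR2 cells (2×10E6 cells/mL) exposed to compounds at 0.0017-100 μM final and stimulated with 2′3′cGAMP (15 μM final) delivered via Lipofectamine 2000. After 24 h at 37° C., secreted luciferase in supernatant read with QUANTI-Luc Plus; EC50 derived from luminescence.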

T1 sequence (Q86WV6 whole entry R71H/G230A/H232R/R293Q): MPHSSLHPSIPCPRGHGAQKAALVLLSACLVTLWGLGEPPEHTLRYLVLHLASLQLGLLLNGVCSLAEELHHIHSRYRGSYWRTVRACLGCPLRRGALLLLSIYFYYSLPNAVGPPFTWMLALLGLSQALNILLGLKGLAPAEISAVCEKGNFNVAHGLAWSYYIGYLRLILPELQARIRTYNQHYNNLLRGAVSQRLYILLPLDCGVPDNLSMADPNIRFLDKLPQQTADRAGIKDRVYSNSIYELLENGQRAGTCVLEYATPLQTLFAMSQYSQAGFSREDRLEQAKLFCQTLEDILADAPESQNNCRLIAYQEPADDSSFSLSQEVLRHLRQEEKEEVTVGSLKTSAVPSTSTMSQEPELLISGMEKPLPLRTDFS

Structure (SMILES) | EC50
Cn1nccc1C(=O)Nc1c[nH]c2ccc(O[C@H]3C[C@@H](c4ccc(C(F)(F)F)cc4)C3)cc12 [Compound 168, 1-methyl-N-(5-((1s,3s)-3-(4-(trifluoromethyl)phenyl)cyclobutoxy)-1H-indol-3-yl)-1H-pyrazole-5-carboxamide] | 200 to 1000 nM
O=C(Nc1c[nH]c2ccc(OCc3ccc(C(F)(F)F)cc3)cc12)c1nccs1 [Compound 141, N-(5-((4-(trifluoromethyl)benzyl)oxy)-1H-indol-3-yl)thiazole-2-carboxamide] | 200 to 1000 nM
Cn1cc(C(=O)Nc2c[nH]c3ccc(OCC[C@@H]4C[C@@H]5CN(CC(F)(F)F)C[C@@H]5C4)cc23)nn1 [Compound 242, N-(5-{2-[(3aR,5R,6aS)-2-(2,2,2-trifluoroethyl)octahydrocyclopenta[c]pyrrol-5-yl]ethoxy}-1H-indol-3-yl)-1-methyl-1H-1,2,3-triazole-4-carboxamide] | 200 to 1000 nM
O=C(Nc1c[nH]c2ccc(OCc3ccc(C(F)(F)F)cc3)cc12)c1cncs1 [Compound 154, N-(5-((4-(trifluoromethyl)benzyl)oxy)-1H-indol-3-yl)thiazole-5-carboxamide] | 200 to 1000 nM
Cn1cc(C(=O)Nc2c[nH]c3ccc(O[C@H]4C[C@H](c5ccc(C(F)(F)F)cc5)C4)cc23)nn1 [Compound 128, 1-methyl-N-(5-((1r,3r)-3-(4-(trifluoromethyl)phenyl)cyclobutoxy)-1H-indol-3-yl)-1H-1,2,3-triazole-4-carboxamide] | 200 to 1000 nM
O=C(Nc1c[nH]c2ccc(CCOc3ccc(C(F)(F)F)cc3)cc12)C1CC2(CCC2)C1 [Compound 144, N-(5-(2-(4-(trifluoromethyl)phenoxy)ethyl)-1H-indol-3-yl)spiro[3.3]heptane-2-carboxamide] | 40 to 200 nM
O=C(Nc1c[nH]c2ccc(O[C@H]3C[C@H](c4ccc(C(F)(F)F)cc4)C3)cc12)c1nccs1 [Compound 232, N-{5-[(1R,3R)-3-[4-(trifluoromethyl)phenyl]cyclobutoxy]-1H-indol-3-yl}-1,3-thiazole-2-carboxamide] | 40 to 200 nM
O=C(Nc1c[nH]c2ccc(OCC[C@@H]3C[C@@H]4CN(CC(F)(F)F)C[C@@H]4C3)cc12)c1cccnc1 [Compound 182, N-(5-(2-((3aR,5r,6aS)-2-(2,2,2-trifluoroethyl)octahydrocyclopenta[c]pyrrol-5-yl)ethoxy)-1H-indol-3-yl)nicotinamide] | 200 to 1000 nM
O=C(Nc1c[nH]c2ccc(OCCc3ccc(C(F)(F)F)cc3)cc12)C1CC2(CCC2)C1 [Compound 191, N-(5-(4-(trifluoromethyl)phenethoxy)-1H-indol-3-y)spiro[3.3]heptane-2-carboxamide] | 40 to 200 nM
O=C(Nc1c[nH]c2ccc(OCC[C@@H]3C[C@@H]4CN(CC(F)(F)F)C[C@@H]4C3)cc12)C12CC(C1)C2 [Compound 186, N-(5-(2-((3aR,5r,6aS)-2-(2,2,2-trifluoroethyl)octahydrocyclopenta[c]pyrrol-5-yl)ethoxy)-1H-indol-3-yl)bicyclo[1.1.1]pentane-1-carboxamide] | 200 to 1000 nM
O=C(Nc1c[nH]c2ccc(O[C@H]3C[C@H](c4ccc(C(F)(F)F)nc4)C3)cc12)c1ccccc1 [Compound 215, N-(5-(trans-3-(6-(trifluoromethyl)pyridin-3-yl)cyclobutoxy)-1H-indol-3-yl)benzamide] | 200 to 1000 nM
O=C(Nc1c[nH]c2ccc(CCOc3ccc(C(F)(F)F)cc3)cc12)C1CC2(CC2)C1 [Compound 198, N-(5-(2-(4-(trifluoromethyl)phenoxy)ethyl)-1H-indol-3-yl)spiro[2.3]hexane-5-carboxamide] | 200 to 1000 nM
O=C(CC1CC1)Nc1c[nH]c2ccc(OCc3ccc(C(F)(F)F)cc3)cc12 [Compound 150, 2-cyclopropyl-N-(5-((4-(trifluoromethyl)benzyl)oxy)-1H-indol-3-yl)acetamide] | 200 to 1000 nM
O=C(Nc1c[nH]c2ccc(OCC[C@@H]3C[C@@H]4CN(CC(F)(F)F)C[C@@H]4C3)cc12)C1CC12CCC2 (stereo partly drawn) [Compound 223, N-(5-(2-((3aR,5R,6aS)-2-(2,2,2-trifluoroethyl)octahydrocyclopenta [c]pyrrol-5-yl)ethoxy)-1H-indol-3-yl)spiro[2.3]hexane-1-carboxamide] | 200 to 1000 nM
Cn1ccnc1C(=O)Nc1c[nH]c2ccc(OCC[C@@H]3C[C@@H]4CN(CC(F)(F)F)C[C@@H]4C3)cc12 [Compound 140, 1-methyl-N-(5-(2-((3aR,5r,6aS)-2-(2,2,2-trifluoroethyl)octahydrocyclopenta[c]pyrrol-5-yl)ethoxy)-1H-indol-3-yl)-1H-imidazole-2-carboxamide] | 200 to 1000 nM
O=C(Nc1c[nH]c2ccc(OCCc3ccc(C(F)(F)F)cc3)cc12)c1ccn[nH]1 [Compound 122, N-(5-(4-(trifluoromethyl)phenethoxy)-1H-indol-3-yl)-1H-pyrazole-5-carboxamide] | 40 to 200 nM
O=C(Nc1c[nH]c2ccc(OCc3ccc(C(F)(F)F)cc3)cc12)C12CC(F)(C1)C2 [Compound 138, 3-fluoro-N-(5-((4-(trifluoromethyl)benzyl)oxy)-1H-indol-3-yl)bicyclo[1.1.1]pentane-1-carboxamide] | 200 to 1000 nM

Structure (SMILES) | EC50
O=C(Nc1c[nH]c2ccc(CCOc3ccc(C(F)(F)F)cc3)cc12)c1cccnc1 [Compound 195, N-(5-(2-(4-(trifluoromethyl)phenoxy)ethyl)-1H-indol-3-yl)nicotinamide] | 200 to 1000 nM
O=C(Nc1c[nH]c2ccc(OCc3ccc(C(F)(F)F)cc3)cc12)C1CC2(CCC2)C1 [Compound 151, N-(5-((4-(trifluoromethyl)benzyl)oxy)-1H-indol-3-yl)spiro[3.3]heptane-2-carboxamide] | 200 to 1000 nM
Cn1nccc1C(=O)Nc1c[nH]c2ccc(O[C@H]3C[C@H](c4ccc(C(F)(F)F)cc4)C3)cc12 [Compound 237, 1-methyl-N-{5-[(1R,3R)-3-[4-(trifluoromethyl)phenyl]cyclobutoxy]-1H-indol-3-yl}-1H-pyrazole-5-carboxamide] | 200 to 1000 nM
O=C(Nc1c[nH]c2ccc(COCc3ccc(C(F)(F)F)cc3)cc12)C12CC(c3ccccc3)(C1)C2 [Compound 130, 3-phenyl-N-(5-(((4-(trifluoromethyl)benzyl)oxy)methyl)-1H-indol-3-yl)bicyclo[1.1.1]pentane-1-carboxamide] | 40 to 200 nM
O=C(Nc1c[nH]c2ccc(O[C@H]3C[C@H](c4ccc(C(F)(F)F)cc4)C3)cc12)c1ccncc1 [Compound 225, N-{5-[(1R,3R)-3-[4-(trifluoromethyl)phenyl]cyclobutoxy]-1H-indol-3-yl}pyridine-4-carboxamide] | 200 to 1000 nM
O=C(Nc1c[nH]c2ccc(CCOc3ccc(C(F)(F)F)cc3)cc12)c1ncccc1F [Compound 117, 3-fluoro-N-(5-(2-(4-(trifluoromethyl)phenoxy)ethyl)-1H-indol-3-yl)picolinamide] | 200 to 1000 nM
Cn1cc(C(=O)Nc2c[nH]c3ccc(OCCc4ccc(C(F)(F)F)cc4)cc23)nn1 [Compound 244, 1-methyl-N-(5-(4-(trifluoromethyl)phenethoxy)-1H-indol-3-yl)-1H-1,2,3-triazole-4-carboxamide] | 40 to 200 nM
O=C(Nc1c[nH]c2ccc(O[C@H]3C[C@H](c4ccc(C(F)(F)F)nc4)C3)cc12)c1ccc(C(F)(F)F)cc1 [Compound 213, 4-(trifluoromethyl)-N-(5-(trans-3-(6-(trifluoromethyl)pyridin-3-yl)cyclobutoxy)-1H-indol-3-yl)benzamide] | 200 to 1000 nM
CC1(C(=O)Nc2c[nH]c3ccc(OCC[C@@H]4C[C@@H]5CN(CC(F)(F)F)C[C@@H]5C4)cc23)CC2(COC2)C1 [Compound 205, 6-methyl-N-(5-(2-((3aR,5r,6aS)-2-(2,2,2-trifluoroethyl)octahydrocyclopenta[c]pyrrol-5-yl)ethoxy)-1H-indol-3-yl)-2-oxaspiro[3.3]heptane-6-carboxamide] | 200 to 1000 nM
O=C(Nc1c[nH]c2ccc(OCc3ccc(C(F)(F)F)cc3)cc12)c1ccccn1 [Compound 149, N-(5-((4-(trifluoromethyl)benzyl)oxy)-1H-indol-3-yl)picolinamide] | 5000 to 100000 nM
N#CC12CC(C(=O)Nc3c[nH]c4ccc(OCCc5ccc(C(F)(F)F)cc5)cc34)(C1)C2 [Compound 106, 3-cyano-N-(5-(4-(trifluoromethyl)phenethoxy)-1H-indol-3-yl)bicyclo[1.1.1]pentane-1-carboxamide] | 200 to 1000 nM
O=C(Nc1c[nH]c2ccc(O[C@H]3C[C@@H](c4ccc(C(F)(F)F)cc4)C3)cc12)C12CC(C1)C2 [Compound 173, N-(5-((1s,3s)-3-(4-(trifluoromethyl)phenyl)cyclobutoxy)-1H-indol-3-yl)bicyclo[1.1.1]pentane-1-carboxamide] | 200 to 1000 nM
O=C(Nc1c[nH]c2ccc(OCc3ccc(C(F)(F)F)cc3)cc12)c1ccncc1 [Compound 147, N-(5-((4-(trifluoromethyl)benzyl)oxy)-1H-indol-3-yl)isonicotinamide] | 200 to 1000 nM
O=C(Nc1c[nH]c2ccc(O[C@H]3C[C@H](c4ccc(C(F)(F)F)cc4)C3)cc12)c1cccnc1 [Compound 227, N-{5-[(1R,3R)-3-[4-(trifluoromethyl)phenyl]cyclobutoxy]-1H-indol-3-yl}pyridine-3-carboxamide] | 200 to 1000 nM
Cn1cc(C(=O)Nc2c[nH]c3ccc(CCOc4ccc(C(F)(F)F)cc4)cc23)nn1 [Compound 243, 1-methyl-N-(5-(2-(4-(trifluoromethyl)phenoxy)ethyl)-1H-indol-3-yl)-1H-1,2,3-triazole-4-carboxamide] | 200 to 1000 nM
Cc1nnc(C(=O)Nc2c[nH]c3ccc(O[C@H]4C[C@H](c5ccc(C(F)(F)F)cc5)C4)cc23)s1 [Compound 127, 5-methyl-N-(5-((1r,3r)-3-(4-(trifluoromethyl)phenyl)cyclobutoxy)-1H-indol-3-yl)-1,3,4-thiadiazole-2-carboxamide] | 200 to 1000 nM
